The target in series [1] is T1, BTK (Homo sapiens, UniProt Q06187). The series is described as follows: Eurofins KinaseProfiler/IC50Profiler radiometric kinase activity assay. Type of series: biochemical. The protocol: (§1) RESULTS AND DISCUSSION—Selectivity—The compound of Formula (III) was evaluated in three selectivity panels to assess the potential for off-target pharmacology (Table 8). […] The kinase off-target profile of The compound of Formula (III) was assessed in a full human wild-type panel using radiometric kinase activity assays (KinaseProfiler™ and IC50Profiler™; Eurofins Scientific) (Table 9; FIG. 23). The compound of Formula (III) inhibited 4/278 kinases >50% at 1 micromolar, identifying BTK and the three other kinases having analogous Cys residues with the potential for covalent inhibition (BMX, TEC, BLK). […]. The cellular kinase selectivity of The compound of Formula (III) was established in native Ramos B cell kinome assays (KiNativ™; ActivX) confirmed BTK as the primary target with inhibition of BLK and TEC inhibition detected (Table 10).
T1 sequence (Q06187 whole entry): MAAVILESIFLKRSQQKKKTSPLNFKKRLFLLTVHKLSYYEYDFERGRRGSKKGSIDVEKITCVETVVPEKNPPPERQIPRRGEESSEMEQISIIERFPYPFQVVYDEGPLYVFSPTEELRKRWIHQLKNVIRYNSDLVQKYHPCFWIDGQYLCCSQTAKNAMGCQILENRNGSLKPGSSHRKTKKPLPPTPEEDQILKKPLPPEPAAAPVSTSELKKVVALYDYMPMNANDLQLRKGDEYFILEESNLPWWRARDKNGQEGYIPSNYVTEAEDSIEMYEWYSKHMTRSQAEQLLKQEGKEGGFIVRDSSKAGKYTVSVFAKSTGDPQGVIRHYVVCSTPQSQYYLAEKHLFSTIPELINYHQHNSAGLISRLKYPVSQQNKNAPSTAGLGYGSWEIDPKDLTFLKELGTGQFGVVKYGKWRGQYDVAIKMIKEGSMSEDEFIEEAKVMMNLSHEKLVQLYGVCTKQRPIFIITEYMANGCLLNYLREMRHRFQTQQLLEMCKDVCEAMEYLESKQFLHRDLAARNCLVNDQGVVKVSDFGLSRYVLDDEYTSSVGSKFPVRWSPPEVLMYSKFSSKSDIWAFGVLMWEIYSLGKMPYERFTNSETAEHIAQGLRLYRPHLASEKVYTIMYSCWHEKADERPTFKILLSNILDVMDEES

The nature of series [2]: Blood-to-plasma concentration ratio. Type of series: in vitro ADME. Particulars: mouse, fresh blood.
Series [3] concerns the target T1, BTK. The series is described as follows: BTK protein occupancy in OCI-LY10 tumor lysates of NSG mice. Type of series: in vivo. Also on record: free BTK protein in OCI-LY10 DLBCL tumor lysates harvested using an BTK occupancy assay; endogenous in cells; host or cells: OCI-LY10 human ABC-DLBCL cells grown as SC xenograft in NSG mice; tumour lysates. Particulars: for receptor occupancy at 10 mg/kg / receptor occupancy at 30 mg/kg / receptor occupancy at 100 mg/kg: OCI-Ly10, mouse. The procedure: FIG. 19 depicts BTK protein occupancy in OCI-LY10 ABC-DLBCL tumor lysates of NSG mice treated with the compound of Formula (III). Unoccupied BTK protein levels are graphed as % normalized to vehicle control BTK levels ±SEM. Female mice were implanted SC on the right flank on day 0. Tumors were established 39 days post implantation, randomized into experimental groups and dosed orally with a single dose (n=5/dose level/time point). Tumor samples were harvested 4, 12 and 24 hours after compound administration.
To evaluate the duration of signaling shutdown and occupancy of BTK protein after compound administration, we determined the amount of free BTK protein in OCI-LY10 DLBCL tumor lysates harvested using an BTK occupancy assay. […] BTK protein occupancy levels remained high with 71%, 94% and 96%, respectively, at 12 hours and 70%, 91% and 85%, respectively after 24 hours. (FIG. 19). The antitumor efficacy of compound of Formula (III) was assessed in mice bearing established SC OCI-LY10 human CD79b mutant DLBCL xenografts in female NSG mice, dosed either once (QD) or twice (BID) a day. Analysis of tumor growth inhibition was performed 14 days into the 21-day treatment period (Day 45) as that was the last day when 2/3 of the vehicle controls remained on the study. Compound of Formula (III) induced tumor growth inhibition in the OCI-LY10 model at all dose levels. […] Taken together, the in vivo data support a first in-human trial of the compound of Formula (III) in combination with Venetoclax in patients with B cell lymphomas.

Series [4] concerns the target T1, BTK. The experiment in a line: ActivX KiNativ native kinase profiling, Ramos cell lysates. In kind it is binding. Also on record: endogenous in cells. The protocol: as §1

As to `C=CC(=O)N[C@H]1CCC[C@H]1NC(=O)c1sc2nccc3c2c1NC(=O)N3c1cnc(CC(C)C)cc1C` (atropisomer, axis not shown) [compound of Formula (III), N-((1R,2S)-2-Acrylamidocyclopentyl)-5-(S)-(6-isobutyl-4-methylpyridin-3-yl)-4-oxo-4,5-dihydro-3H-1-thia-3,5,8-triazaacenaphthylene-2-carboxamide], the inhibition at 1 µM at BTK [1] (1 μM) turned out to be 98%; on BTK [4] (Lys labelling), 90.3%; against BTK [4] (activation loop labeling), 94.4%. For the same compound, the IC50 at BTK [1] (10-point concentration response, read-out: IC50 (IC50 Profiler)) turned out to be 558 nM. In addition, the blood plasma ratio at 1 μM in series [2] is 0.84. Further, the “BTK protein occupancy in tumor” value at BTK [3] (1 mg/kg) and on BTK [3] (3 mg/kg) was “No BTK occupancy” each time. The receptor occupancy at 10 mg/kg on BTK [3] (4 hours) was found to be 54%; at BTK [3] (12 hours) it was 71%; at BTK [3] (24 hours), 70%. The figures for the receptor occupancy at 30 mg/kg on BTK [3] (4 hours), on BTK [3] (12 hours) and on BTK [3] (24 hours) were 90%, 94% and 91%, respectively. Also, the receptor occupancy at 100 mg/kg at BTK [3] (4 hours) worked out at 95%; at BTK [3] (12 hours), 96%; on BTK [3] (24 hours) it was 85%.

For orientation: inhibition means how much of the control response was suppressed. A high value points to a response far below the control. The term IC50 denotes the concentration needed to halve the response being measured.

The values are drawn from patent publication US12622910B2, “Inhibitors of Bruton's tyrosine kinase and methods of their use” (Janssen Pharmaceutica NV, priority 2021, dated 2026).
